Measured values taken from the supplement of paper PMC10307832.

What was measured:
Experiment in all cases: relative viability (nuclei count vs DMSO), 5 days (fraction); higher = more cells survive
[1] = compound: CCC1=CN=CN=C1N2CCN(CC2)CC3=NC4=C(N3)C=C(C=C4)C(F)(F)F + CC1(C)CCC(c2ccc(Cl)cc2)=C(CN2CCN(c3ccc(C(=O)NS(=O)(=O)c4ccc(N[C@H](CCN5CCOCC5)CSc5ccccc5)c(S(=O)(=O)C(F)(F)F)c4)cc3)CC2)C1 [Navitoclax] (partner 0.5 µM)
Procedure, shortened: (§1)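 For relative viability, nuclei counts in treated wells were divided by those in vehicle wells. Lung cancer cell lines had been pin-tool dosed in 1536-well plates the day after seeding and cultured for 5 days, then fixed and stained in one step (final 0.05% Triton X-100, 1% formaldehyde, 1 ug/ml Hoechst) and imaged at 4×. Doses were one drug alone or a fixed anchor-drug dose plus five library-drug doses (not always all listed) in √10 steps, and values are duplicate-plate medians.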

[2] = compound: CCC1=CN=CN=C1N2CCN(CC2)CC3=NC4=C(N3)C=C(C=C4)C(F)(F)F + Cc1nc(NC(=O)N2CCC[C@H]2C(N)=O)sc1-c1ccnc(C(C)(C)C(F)(F)F)c1 [Alpelisib] (partner 2 µM)
Procedure, shortened: as §1

[3] = compound: CCn1c(-c2nonc2N)nc2cnc(Oc3cccc(NC(=O)c4ccc(OCCN5CCOCC5)cc4)c3)cc21 + Cc1cc(Nc2cc(N3CCN(C)CC3)nc(Sc3ccc(NC(=O)C4CC4)cc3)n2)n[nH]1 [Tozasertib] (partner 0.1 µM)
Procedure, shortened: as §1

Mirin + Vorinostat = compound: N=C1NC(=O)/C(=C/c2ccc(O)cc2)S1 [Mirin] + O=C(CCCCCCC(=O)Nc1ccccc1)NO [Vorinostat] (partner 1 µM)
Procedure, shortened: as §1

Q: Which results are given for UMC-11?
A: relative viability ([1]; first compound 0.04 µM): 0.319; relative viability ([1]; first compound 0.1265 µM): 0.304; relative viability ([1]; first compound 0.4 µM): 0.312; relative viability ([1]; first compound 1.265 µM): 0.284; relative viability ([1]; first compound 4 µM): 0.305; relative viability ([2]; first compound 0.04 µM): 0.973; relative viability ([2]; first compound 0.1265 µM): 1.07; relative viability ([2]; first compound 0.4 µM): 0.959; relative viability ([2]; first compound 1.265 µM): 0.906; relative viability ([2]; first compound 4 µM): 0.871; relative viability ([3]; first compound 0.04 µM): 0.206; relative viability ([3]; first compound 0.1265 µM): 0.212; relative viability ([3]; first compound 0.4 µM): 0.205; relative viability ([3]; first compound 1.265 µM): 0.16; relative viability ([3]; first compound 4 µM): 0.186; relative viability (Mirin + Vorinostat; first compound 0.25 µM): 0.411; relative viability (Mirin + Vorinostat; first compound 0.7906 µM): 0.362; relative viability (Mirin + Vorinostat; first compound 2.5 µM): 0.399; relative viability (Mirin + Vorinostat; first compound 7.906 µM): 0.305; relative viability (Mirin + Vorinostat; first compound 25 µM): 0.266
